Patent US20100190794A1, “Herbicidally Active Composition” (BASF SE, priority 2007, published 2010)

Tests used:
POAAN = assay: greenhouse test, pre-emergence treatment; type: in vivo, Poa annua; details: 6.25 g/ha a.s., Use Example 6
From the text: (§1) The culture containers used were plastic pots containing loamy sand with approximately 3.0% of humus as substrate. The seeds of the test plants were sown separately for each species.
(§2) For the pre-emergence treatment, the active compounds, suspended or emulsified in water, were applied directly after sowing by means of finely distributing nozzles. The containers were irrigated gently to promote germination and growth and subsequently covered with transparent plastic hoods until the plants had rooted. This cover caused uniform germination of the test plants unless this was adversely affected by the active compounds.
(§3) Depending on the species, the plants were kept at 10-25° C. and 20-35° C., respectively. The test period extended over 2 to 4 weeks. During this time, the plants were tended and their response to the individual treatments was evaluated.
(§4) Evaluation was carried out using a scale from 0 to 100. 100 means no emergence of the plants, or complete destruction of at least the above-ground parts, and 0 means no damage or normal course of growth. Good herbicidal activity is given at values of at least 70, and very good herbicidal activity is given at values of at least 85.
(§5) The respective stated components A and B, and if appropriate, C were formulated as a 5% by weight or 10% by weight strength emulsion concentrate or a commercially available formulation of component B was used and, with addition of the amount of solvent system, introduced into the spray liquor used for applying the active compound. In the examples, the solvent used was water.
(§6) The test period extended over 20 or 21 days. During this time, the plants were tended, and their reactions to the treatment with active compound was monitored.
(§7) What was evaluated was the damage by the chemical compositions using a scale of from 0 to 100%, in comparison to the untreated control plants. 0 means no damage, and 100 means complete destruction of the plants.
(§8) In the examples below, using the method of S. R. Colby (1967) “Calculating synergistic and antagonistic responses of herbicide combinations”, Weeds 15, p. 22 ff., the value E, which is expected if the activity of the individual active compounds is only additive, was calculated.
(§9) where X=percent activity using active compound A at an application rate a; Y=percent activity using active compound B at an application rate b; E=expected activity (in %) by A+B at application rates a+b.
(§10) If the value found in experiments is higher than the value E calculated according to Colby, a synergistic effect is present.

AVEFA = assay: greenhouse test, pre-emergence treatment; type: in vivo, Avena fatua; details: 6.25 g/ha a.s., Use Example 6
From the text: as §1, §2, §3
(§11) Evaluation was carried out using a scale from 0 to 100. 100 means no emergence of the plants, or complete destruction of at least the above-ground parts, and 0 means no damage or normal course of growth. Good herbicidal activity is given at values of at least 70, and very good herbicidal activity is given at values of at least 85. […]
as §6
(§12) What was evaluated was the damage by the chemical compositions using a scale of from 0 to 100%, in comparison to the untreated control plants. […]
(§13) In the examples below, using the method of S. R. Colby (1967) “Calculating synergistic and antagonistic responses of herbicide combinations”, Weeds 15, p. 22 ff., the value E, which is expected if the activity of the individual active compounds is only additive, was calculated. […]
as §10

LAMPU = assay: greenhouse test, pre-emergence treatment; type: in vivo, Lamium purpureum
From the text: as §1, §2, §3, §4, §5, §6, §7, §8, §9, §10

DIGSA [1] = assay: greenhouse test, post-emergence treatment; type: in vivo, Digitaria sanguinalis; details: 125 g/ha a.s., Use Example 18
Protocol: as §1
(§14) For the post-emergence treatment, the test plants were grown to a plant height of from 3 to 15 cm, depending on the plant habit, and only then treated with the active compounds which had been suspended or emulsified in water. To this end, the test plants were either sown directly and grown in the same containers, or they were first grown separately as seedlings and transplanted into the test containers a few days prior to treatment.
as §3, §11, §6, §12, §13, §10

SETVI [2] = assay: greenhouse test, post-emergence treatment; type: in vivo, Setaria viridis
Protocol: as §1, §14, §3, §4, §5, §6, §7, §8, §9, §10

APESV = assay: greenhouse test, pre-emergence treatment; type: in vivo, Apera spica-venti; details: 32 g/ha a.s., Use Example 21
From the text: as §1, §2, §3, §4, §5, §6, §7, §8, §9, §10

LOLMU [3] = assay: greenhouse test, pre-emergence treatment; type: in vivo, Lolium multiflorum
From the text: as §1, §2, §3, §4, §5, §6, §7, §8, §9, §10

ALOMY [4] = assay: greenhouse test, pre-emergence treatment; type: in vivo, Alopecurus myosuroides
From the text: as §1, §2, §3, §4, §5, §6, §7, §8, §9, §10

CCHEC = assay: greenhouse test, pre-emergence treatment; type: in vivo, Cenchrus echinatus; details: Use Example 3
From the text: as §1, §2, §3, §4, §5, §6, §7, §8, §9, §10

PANDI = assay: greenhouse test, pre-emergence treatment; type: in vivo, Panicum dichotomiflorum; details: Use Example 3
From the text: as §1, §2, §3, §11, §6, §12, §13, §10

LOLMU [5] = assay: greenhouse test, post-emergence treatment; type: in vivo, Lolium multiflorum; details: Use Example 17
Protocol: as §1, §14, §3, §4, §5, §6, §7, §8, §9, §10

ALOMY [6] = assay: greenhouse test, post-emergence treatment; type: in vivo, Alopecurus myosuroides; details: Use Example 17
Protocol: as §1, §14, §3, §4, §5, §6, §7, §8, §9, §10

DIGSA [7] = assay: greenhouse test, pre-emergence treatment; type: in vivo, Digitaria sanguinalis; details: Use Example 22
From the text: as §1, §2, §3, §4, §5, §6, §7, §8, §9, §10

SETVI [8] = assay: greenhouse test, pre-emergence treatment; type: in vivo, Setaria viridis; details: 25 g/ha a.s., Use Example 11
From the text: as §1, §2
Depending on the species, the plants were kept at 10-25° C. and 20-35° C., respectively. […] During this time, the plants were tended and their response to the individual treatments was evaluated. […]
as §6, §12, §13

SETFA = assay: greenhouse test, pre-emergence treatment; type: in vivo, Setaria faberi
From the text: as §1, §2, §3, §4, §5, §6, §7, §8, §9, §10

SOLNI = assay: greenhouse test, pre-emergence treatment; type: in vivo, Solanum nigrum L.; details: Use Example 22
From the text: as §1, §2, §3, §4, §5, §6, §7, §8, §9, §10

BRAPL = assay: greenhouse test, pre-emergence treatment; type: in vivo, Brachiaria plantaginea; details: Use Example 12
From the text: as §1, §2, §3, §4, §5, §6, §7, §8, §9, §10

ECHCG = assay: greenhouse test, pre-emergence treatment; type: in vivo, Echinochloa crus-galli; details: Use Example 22
From the text: as §1, §2, §3, §4, §5, §6, §7, §8, §9, §10

## CC(C)N(C)S(=O)(=O)NC(=O)c1cc(-n2c(=O)cc(C(F)(F)F)n(C)c2=O)c(F)cc1Cl [2-chloro-5-[3,6-dihydro-3-methyl-2,6-dioxo-4-(trifluoromethyl)-1(2H)-pyrimidinyl]-4-fluoro-N-[(isopropyl)methylsulfamoyl]benzamide, reference compound]
POAAN
  Herbicidal action in % after 20 days against POAAN: 0%
AVEFA
  Herbicidal action in % after 20 days against AVEFA: 0%

## CC(C)N(C(=O)COc1nnc(C(F)(F)F)s1)c1ccc(F)cc1 [Flufenacet, reference compound]
LAMPU; 32 g/ha a.s., Use Example 21
  Herbicidal action in % after 20 days against LAMPU: 20%
DIGSA [1]
  Herbicidal action in % after 20 days against DIGSA: 75%
SETVI [2]; 125 g/ha a.s., Use Example 18
  Herbicidal action in % after 20 days against SETVI: 70%
APESV
  Herbicidal action in % after 20 days against APESV: 95%
LOLMU [3]; 32 g/ha a.s., Use Example 21
  Herbicidal action in % after 20 days against LOLMU: 65%
LOLMU [3]; 62.5 g/ha a.s., Use Example 13
  Herbicidal action in % after 20 days against LOLMU: 40%
LOLMU [3]; 125 g/ha a.s., Use Example 13
  Herbicidal action in % after 20 days against LOLMU: 70%
ALOMY [4]; 32 g/ha a.s., Use Example 21
  Herbicidal action in % after 20 days against ALOMY: 70%
ALOMY [4]; 62.5 g/ha a.s., Use Example 13
  Herbicidal action in % after 20 days against ALOMY: 75%
ALOMY [4]; 125 g/ha a.s., Use Example 13
  Herbicidal action in % after 20 days against ALOMY: 90%

## CCc1cnc(C2=NC(C)(C(C)C)C(=O)N2)c(C(=O)O)c1 (stereo not drawn) [Imazethapyr]
CCHEC; 17.5 g/ha a.s.
  Herbicidal action in % after 21 days against CCHEC: 50%
CCHEC; 35 g/ha a.s.
  Herbicidal action in % after 21 days against CCHEC: 60%
PANDI; 17.5 g/ha a.s.
  Herbicidal action in % after 21 days against PANDI: 95%
PANDI; 35 g/ha a.s.
  Herbicidal action in % after 21 days against PANDI: 95%

## CCC(CC)Nc1c([N+](=O)[O-])cc(C)c(C)c1[N+](=O)[O-] [Pendimethalin, reference compound]
LOLMU [5]; 500 g/ha a.s.
  Herbicidal action in % after 20 days against LOLMU: 70%
LOLMU [5]; 1000 g/ha a.s.
  Herbicidal action in % after 20 days against LOLMU: 75%
ALOMY [6]; 500 g/ha a.s.
  Herbicidal action in % after 20 days against ALOMY: 65%
ALOMY [6]; 1000 g/ha a.s.
  Herbicidal action in % after 20 days against ALOMY: 75%
SETVI [2]; 500 g/ha a.s., Use Example 17
  Herbicidal action in % after 20 days against SETVI: 90%
SETVI [2]; 1000 g/ha a.s., Use Example 17
  Herbicidal action in % after 20 days against SETVI: 95%
LOLMU [3]; 250 g/ha a.s., Use Example 10
  Herbicidal action in % after 20 days against LOLMU: 0%
ALOMY [4]; 250 g/ha a.s., Use Example 10
  Herbicidal action in % after 20 days against ALOMY: 30%

## Cn1nc(C(F)(F)F)c(CS(=O)(=O)C2=NOC(C)(C)C2)c1OC(F)F [Pyroxasulfone]
LAMPU; 25 g/ha a.s., Use Example 11
  Herbicidal action in % after 21 days against LAMPU: 55%
DIGSA [7]; 6.25 g/ha a.s.
  Herbicidal action in % after 20 days against DIGSA: 70%
DIGSA [7]; 13 g/ha a.s.
  Herbicidal action in % after 20 days against DIGSA: 95%
SETVI [8]
  Herbicidal action in % after 21 days against SETVI: 100%
SETFA; 6.25 g/ha a.s., Use Example 22
  Herbicidal action in % after 20 days against SETFA: 75%
SETFA; 12.5 g/ha a.s., Use Example 12
  Herbicidal action in % after 20 days against SETFA: 75%
SETFA; 13 g/ha a.s., Use Example 22
  Herbicidal action in % after 20 days against SETFA: 98%
SETFA; 25 g/ha a.s., Use Example 12
  Herbicidal action in % after 20 days against SETFA: 98%
SOLNI; 6.25 g/ha a.s.
  Herbicidal action in % after 20 days against SOLNI: 40%
SOLNI; 13 g/ha a.s.
  Herbicidal action in % after 20 days against SOLNI: 85%
BRAPL; 12.5 g/ha a.s.
  Herbicidal action in % after 20 days against BRAPL: 40%
BRAPL; 25 g/ha a.s.
  Herbicidal action in % after 20 days against BRAPL: 75%
ECHCG; 6.25 g/ha a.s.
  Herbicidal action in % after 20 days against ECHCG: 55%
ECHCG; 13 g/ha a.s.
  Herbicidal action in % after 20 days against ECHCG: 85%
LOLMU [3]; 25 g/ha a.s., Use Example 11
  Herbicidal action in % after 21 days against LOLMU: 90%
